Read-outs that look alike come from different tables or passages of the source.
Tests used:
[1] = target: T1, kidney derived Caki-1 cells, which contain OCT3 (Homo sapiens, UniProt O75751); conditions: cited from earlier work
T1 construct: kidney derived Caki-1 cells, which contain OCT3; endogenous in cells; host or cells: Caki-1
T1 sequence (O75751 1-556): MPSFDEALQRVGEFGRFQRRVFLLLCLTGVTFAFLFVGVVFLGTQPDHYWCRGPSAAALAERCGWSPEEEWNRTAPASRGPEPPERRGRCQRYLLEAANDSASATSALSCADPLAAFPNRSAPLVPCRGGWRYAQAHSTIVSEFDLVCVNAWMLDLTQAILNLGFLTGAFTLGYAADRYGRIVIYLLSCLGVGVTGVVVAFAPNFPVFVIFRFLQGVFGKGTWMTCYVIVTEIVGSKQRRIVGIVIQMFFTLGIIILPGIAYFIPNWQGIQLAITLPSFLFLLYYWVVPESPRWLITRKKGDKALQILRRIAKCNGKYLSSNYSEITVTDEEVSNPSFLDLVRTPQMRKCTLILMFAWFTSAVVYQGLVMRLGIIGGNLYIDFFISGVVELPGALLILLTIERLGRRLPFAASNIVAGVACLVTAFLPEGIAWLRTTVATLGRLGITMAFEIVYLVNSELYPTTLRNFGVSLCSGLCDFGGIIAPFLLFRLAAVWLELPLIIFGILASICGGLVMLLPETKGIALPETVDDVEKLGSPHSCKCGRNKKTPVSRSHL

OCT3/uptake2 = target: T2, OCT3/uptake2 (Homo sapiens, UniProt O75751); conditions: cited from earlier work
T2 sequence (O75751 1-556): T1 sequence (O75751 1-556)

other OCT subtypes = conditions: cited from earlier work
[2] = intravenous administration; cited from earlier work
Male ddY mice [3] = experiment: Forced swimming test (depression model); assay type: in vivo
Procedure: Male ddY mice were used for the experiments. Mice raised for three or more days after purchase were made to swim for 300 seconds in a beaker (15 cm in diameter, 20 cm in height). Immobility time was measured, and the mice were divided into groups such that the average immobility time was approximately the same for each group. The day after swimming an antisense (OCT3 antisense) constructed from an OCT3 gene sequence was continuously infused into the cerebral ventricle, using an osmotic pump according to the reported literature (J. Chem. Neuroanat. 2000. 20: 375-87). Further, a group infused with Ringer's solution, which is an antisense solvent (the solvent group) and a group infused with a cDNA sequence with the same bases as the antisense but in a random sequence without homology to known genes (the scrambled OCT3 antisense group) were also prepared. One week after infusion the mice were returned to the beakers and made to swim for 300 seconds, and immobility time was measured. Imipramine anti-depressant was intraperitoneally administered 30 minutes before the beginning of the test.

Male ddY mice [4] = conditions: anti-depressant administration: chlordiazepoxide 100 mg/kg, imipramine 16 mg/kg; Behav Brain Res. 73, 43-46, 1996; cited from earlier work
[5] = test system: cultured porcine tubular cells; conditions: cited from earlier work

C[C@]12C[C@H](O)[C@H]3[C@@H](CCC4=CC(=O)CC[C@@]43C)[C@@H]1CC[C@@H]2C(=O)CO [Corticosterone, corticosterone]
uptake of MPP+ [1]: suppresses

CCN1C(=Cc2cc(C)nc(-c3ccccc3)[n+]2C)C=Cc2ccccc21.[Cl-] [cyanine 863]
inhibition of OCT3/uptake2 (OCT3/uptake2): potent OCT3 inhibitors | inhibitory activity towards other OCT subtypes (other OCT subtypes): potent inhibitory activity

CCN1/C(=C/c2ccc3ccccc3[n+]2CC)C=Cc2ccccc21.[I-] [decynium 22]
inhibition of OCT3/uptake2 (OCT3/uptake2): potent OCT3 inhibitors | inhibitory activity towards other OCT subtypes (other OCT subtypes): potent inhibitory activity

CC(C)N1C=CC(=Cc2ccc3ccccc3[n+]2C(C)C)c2ccccc21 [disprocynium24, 1,1′-diisopropyl-2,4′-cyanine]
inhibition of OCT3/uptake2 (OCT3/uptake2): potent inhibitor | inhibition of OCT3/uptake2 (OCT3/uptake2; listed as disprocynium 24): potent OCT3 inhibitors | excretion of monoamine into urine [2]: strongly suppresses | inhibitory activity towards other OCT subtypes (other OCT subtypes): potent inhibitory activity

CN(C)CCCN1c2ccccc2CCc2ccccc21 [imipramine]
immobility time (average value) (Male ddY mice [3]; imipramine 4 mg/kg intraperitoneally 30 minutes before test, 300 seconds of swimming, FIG. 1B): 245 ± 15 s | condition of immobility (Male ddY mice [4]): shortened

COc1cc(C(O)CN)ccc1O (stereo not shown) [normetanephrine]
immobility time (average value) (Male ddY mice [3]; normetanephrine 2.5 μg/0.25 μl/hr continuous infusion to cerebral ventricle, one week, FIG. 2): 108 ± 29 s

CC(=O)[C@H]1CC[C@H]2[C@@H]3CCC4=CC(=O)CC[C@]4(C)[C@H]3CC[C@]12C [progesterone]
noradrenaline uptake [5]: significantly reduce
